For three molecules, MIC and MIC50 results are on record in patent US20240018121A1, “NOVEL HETEROAROMATIC COMPOUNDS EXHIBITING ANTIFUNGAL ACTIVITY AND THEIR METHOD OF USE” (FOX CHASE CHEMCIAL DIVERSITY CENTER, INC., priority 2020, published 2024).

Values after ≈ are worked out from the molar mass of the structure shown. Some results are limits rather than exact numbers.

Holding throughout (assay type): cell-based
The subject of assay [1] is Aspergillus flavus AFL1 (ATCC MYA-3631). Kind of assay: Fungal MIC Protocol, Aspergillus flavus. The settings on record: Aspergillus flavus; 100% growth inhibition at 48 hours; read-out: MIC Aspergillus flavus 3631. The method, boiled down: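 The MIC against Aspergillus flavus was measured by broth microdilution in RPMI/MOPS medium at pH 7.0. Compounds were diluted to 200 ug/mL from DMSO stocks, then ten serial dilutions were tested in duplicate in round bottom 96-well plates. Spores adjusted to a final OD530 of 0.002 were added, with no-cell and no-compound control wells, and plates were incubated 48 hours at 35° C.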

Assay [2] concerns Aspergillus fumigatus T33439 (ATCC MYA-3626). Kind of assay: Fungal MIC Protocol, Aspergillus fumigatus. The settings on record: Aspergillus fumigatus; 100% growth inhibition at 48 hours; read-out: MIC Aspergillus fumigatus 3626. The essentials: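 This broth microdilution MIC test used RPMI/MOPS medium at pH 7.0 with glucose. Compounds were diluted from DMSO stock to 200 ug/mL and serially diluted ten times in 96-well round bottom plates. Equal volumes of compound and Aspergillus spore suspension at OD530 0.002 were combined, with controls of compound without cells and spores without compound. Plates were bagged and incubated at 35° C. for 48 hours.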

The subject of assay [3] is Fusarium falciforme FS1 (ATCC MYA-3636). Kind of assay: Fungal MIC Protocol, Fusarium falciforme. The settings on record: Fusarium falciforme; 100% growth inhibition at 48 hours; read-out: MIC Fusarium falciforme 3636. The method, boiled down:
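MIC against Fusarium falciforme was determined by broth microdilution in RPMI/MOPS medium containing glucose. Compounds started at 200 ug/mL and were serially diluted ten times, then combined with harvested spores adjusted to an OD530 of 0.005. Controls held compound without cells and spores without compound. Plates were bagged and incubated at 35° C. for 48 hours.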

The subject of assay [4] is Fusarium solani (ATCC 58877). The assay is described as follows: Fungal MIC Protocol, Fusarium solani. Particulars: Fusarium solani, ATCC58877; 100% growth inhibition at 48 hours; read-out: MIC Fusarium solani 58877. The essentials: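 Broth microdilution MIC test against Fusarium solani in RPMI/MOPS medium at pH 7.0. Compounds from DMSO stock were diluted to 200 ug/mL, then serially diluted ten times and plated in duplicate at 50 μl per well. 50 ul of spore suspension at OD530 0.005 was added. Controls had compound without cells and spores without compound. Plates were mixed gently, bagged, and incubated at 35° C. for 48 hours.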

The test system of assay [5] is Mucor circinelloides 1463(62) (ATCC 26759). The assay is described as follows: Fungal MIC Protocol, Mucor circinelloides (MIC-50). The settings on record: Mucor circinelloides, ATCC26759; 50% growth inhibition at 48 hours; read-out: MIC-50 Mucorales circinelloides 26579. The method, boiled down:
(§1)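 Harvested spores, adjusted by OD530 to about 2×10^4 cfu/mL in RPMI/MOPS pH 7.0, are mixed with ten duplicate serial dilutions of compound. Incubation runs 48 h at 35° C before visual scoring of the lowest concentration inhibiting growth >50%.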

Assay [6] concerns Mucor ramosissimus 057718 (ATCC 90286). Kind of assay: Fungal MIC Protocol, Mucor ramosissimus (MIC-50). The settings on record: Mucor ramosissimus, ATCC90286; 50% growth inhibition at 48 hours; read-out: MIC-50 Mucorales ramosissimus 90286. The essentials:
as §1

Assay [7] deals with Candida albicans GDH2346. Kind of assay: Candida Minimal Inhibitory Concentration (MIC). Particulars: Candida albicans, GDH2346; 50% growth inhibition at 48 hours; read-out: MIC-50 Candida albicans GDH2346. The essentials: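 Twofold serial dilutions from 200 μg/mL in RPMI 1640/MOPS with glucose, pH 7.0, tested in duplicate against yeast from an OD600 1.0 suspension diluted 1:1000. Incubated at 35° C; OD600 read at 24 and 48 h.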

Regarding `CCCCCCCCn1c(-c2ccc(C3=CCN(C(=N)N)CC3)cc2F)nnc1-c1ccc(C2=CCN(C(=N)N)CC2)cc1F` [Example 11, 4,4′-(4,4′-(4-Octyl-4H-1,2,4-triazole-3,5-diyl)bis(3-fluoro-4,1-phenylene))bis(5,6-dihydropyridine-1(2H)-carboximidamide)], the minimum inhibitory concentration (MIC) in assay [1] was determined as 0.78 µg/mL (≈ 1.27 µM); in assay [2], 0.39 µg/mL (≈ 0.633 µM); in assay [3] it was 0.2 µg/mL (≈ 0.325 µM); in assay [4], 0.2 µg/mL (≈ 0.325 µM). The figures for the MIC50 in assay [5], in assay [6] and in assay [7] were 1.56 µg/mL (≈ 2.53 µM), 3.13 µg/mL (≈ 5.08 µM) and 1.56 µg/mL (≈ 2.53 µM), respectively.

Take `Cc1cc(C2=CCN(C(=N)N)CC2)ccc1-n1cc(-c2ccc(C3=CCN(C(=N)N)CC3)cc2)nn1` [Example 34, 4-(4-(1-(4-(1-Carbamimidoyl-1,2,3,6-tetrahydropyridin-4-yl)-2-methylphenyl)-1H-1,2,3-triazol-4-yl)phenyl)-5,6-dihydropyridine-1(2-H)-carboximidamide]: the MIC in assay [1] is 0.2 µg/mL (≈ 0.415 µM); in assay [2], 0.2 µg/mL (≈ 0.415 µM); in assay [3], less than 0.1 µg/mL; in assay [4], 0.39 µg/mL (≈ 0.81 µM). The MIC50 stood at 0.39 µg/mL (≈ 0.81 µM) in assay [5], 25 µg/mL (≈ 51.9 µM) in assay [6] and 0.16 µg/mL (≈ 0.332 µM) in assay [7].

For the molecule `Cc1cc(-c2nnc(-c3ccc(C4=CCN(C(=N)N)CC4)cc3)o2)ccc1C1=CCN(C(=N)N)CC1` [Example 42, 4-(4-(5-(4-(1-Carbamimidoyl-1,2,3,6-tetrahydropyridin-4-yl)-3-methylphenyl)-1,3,4-oxadiazol-2-yl)phenyl)-5,6-dihydropyridine-1(2H)-carboximidamide], the minimal inhibitory concentration (MIC) in assay [1] was 6.25 µg/mL (≈ 13 µM); in assay [2] it was greater than 25 µg/mL; in assay [3] it was 0.39 µg/mL (≈ 0.808 µM); in assay [4], 1.56 µg/mL (≈ 3.23 µM). The MIC50 in assay [5] worked out at 25 µg/mL (≈ 51.8 µM); in assay [6], 25 µg/mL (≈ 51.8 µM); in assay [7], 0.39 µg/mL (≈ 0.808 µM).
